Data from US5945561A, “Retinoid-like compounds” (Bristol-Myers Squibb Company, priority 1998, dated 1999).

Legend:
HL60 cells = experiment: Differentiation and apoptosis of HL60 cells (NBT staining); type: cell-based; conditions: culture up to 9 days; for EC50 (culture day necessary to convert cells into a differentiated or apoptosed phenotype): HL60 cells, 1 μm compound, NBT staining
From the text: At the end of each day of the culture period, cells were washed and stained with NBT (nitro blue tetrazolium) and counted.

[1] = system: trauma-induced caecal adhesions in female Wistar rat; experiment: Trauma-induced caecal adhesion model in rats (oral treatment once daily for 7 days, examined on seventh postoperative day); type: in vivo; conditions: 1 × daily for 7 days, N = 5, female Wistar rats; for Mean number of adhesions/rat +/- SD: vehicle (peanut oil) 15.4 +/- 4.8; for Mean Adhesion Severity/Rat +/- SD: vehicle (peanut oil) 39.2 +/- 15
Experimental: Models of peritoneal adhesions induced by surgical trauma have been used to predict the clinical activity of a number of marketed anti-adhesion barrier devices. One such model is the trauma-induced caecal adhesion model in rats.
Adult female Wistar rats were used in our studies. The trauma induction was carried out using aseptic conditions in animals anesthetized with a mixture of Ketamine (100 mg/kg) and Rompun (10 mg/kg) given IP. A 2 cm midline abdominal incision was made and the caecum was exteriorized. Both sides of the caecum were abraded with a dry gauze until there was evidence of punctate bleeding. After replacing the organ in the abdominal cavity, the incision was closed. Trauma to the caecum produces fibrous scar tissue or adhesions to adjacent organs, peritoneal wall, or the omentum. Animals were treated with test compound orally. Oral treatments were administered once daily for up to 7 days.
On the seventh postoperative day, the animals were sacrificed and the peritoneal cavity was exposed and examined for adhesions. Three criteria that were used to evaluate the adhesions are: severity of the adhesions, extent or area of the ceacum involved with adhesions and the number of adhesions formed in each animal. Statistical analysis of the data was performed using students' T test. The following scoring system was used:
1.0 = easily separable, filmy, non-vascularized adhesions
covering 25% of the caecum;
2.0 = dense adhesions separated by blunt dissection and in-
volving 50% of the caecum;
3.0 = dense, fibrous, vascularized adhesions requiring sharp
dissection and covering 75% of the caecum;
4.0 = severe, dense, vascularized adhesions unable to
separate without tearing the adjacent membranes and
covering greater than 75% of the caecum.
The Dose Dependent Effect of Orally Dosed Test Compound on Trauma-induced Ceacal Adhesions in Female Wistar Rat

Compound | EC50 (culture day necessary to convert cells into a differentiated or apoptosed phenotype) (HL60 cells) | Mean number of adhesions/rat +/- SD ([1]; 3 mg/kg oral) | Mean Adhesion Severity/Rat +/- SD ([1]; 3 mg/kg oral) | Mean number of adhesions/rat +/- SD ([1]; 10 mg/kg oral) | Mean Adhesion Severity/Rat +/- SD ([1]; 10 mg/kg oral) | Mean number of adhesions/rat +/- SD ([1]; 25 mg/kg oral, * p = 0.03) | Mean Adhesion Severity/Rat +/- SD ([1]; 25 mg/kg oral, * p = 0.03) | differentiation and apoptosis of HL60 cells, comparison with t-RA (HL60 cells; 1 μm, result in words)
CC1=C(/C=C/C(C)=C/C=C/C(C)=C/C(=O)O)C(C)(C)CCC1 [tRA, all-trans retinoic acid, reference compound] | 3.2 days |  |  |  |  |  |  | 
CC1(C)CC=C(c2ccccc2)c2cc3cc(-c4ccc(C(=O)O)cc4)ccc3cc21 [Example 1] | 6.0 days | 14.6 +/- 2.7 | 36 +/- 7.0 | 12.2 +/- 1.6 | 30.2 +/- 5.5 | 6.8 +/- 2.4 | 14.8 +/- 5.6 | comparable to t-RA in this assay
